According to patent US20260256872A1, “PEPTIDE FOR TREATING DEMYELINATING DISEASES AND USE THEREOF” (KINE SCIENCES Co., Ltd., priority 2023, published 2026):

Legend:
[1] = tested on: chronic inflammatory demyelinating polyneuropathy (CIDP) animal model; experiment: Demyelination in peripheral nerve tissues (TEM), CIDP animal model; type: in vivo, Lewis rats; conditions: KINE-101 50 mg/kg I.V.; hind limb peripheral nerve
Procedure: Female Lewis rats (7 weeks old) were obtained and acclimatized for one week. Thereafter, solution A was prepared by dissolving peripheral myelin PO protein (180-199) in 0.9% saline at a concentration of […], and solution B was prepared by dissolving Mycobacterium tuberculosis in Freund's incomplete adjuvant at a concentration of […]. A sterile 50 ml tube was placed in an ice box, and solutions A and B were mixed at a ratio of 1:1. The mixture was then homogenized using a homogenizer for 15 minutes to prepare an emulsion. The prepared emulsion was loaded into a 1 ml syringe, the syringe needle was replaced with a 25G needle, and the syringe was stored in an ice box containing ice until use. The emulsion (200 μL) was subcutaneously (S.C.) injected into the tail of the Lewis rats to induce the disease. […] From the day following disease induction, KINE-101 dissolved in DPBS was intravenously (I.V.) administered three times per week at doses of 1, 5, 25, and 50 mg/kg.
Tissue cross-sections were then observed using a transmission electron microscope (TEM) to evaluate the degree of myelin loss. In addition, comparisons were made with the normal group (Normal) and the CIDP-induced group (EAN PO (180-199)).

Treg cells = experiment: Treg cell proportion and activation in lymph nodes at nerve injury site (flow cytometry); type: in vivo, C57BL/6 mice
From the text: (§1) Specifically, a uniform nerve injury model can be obtained by damaging the nerve emerging from the spinal cord at a predetermined intensity for a certain period of time, and since both the intensity and duration can be controlled, it is possible to establish a nerve injury model that persists for a desired period. For the disease induction groups, the boundary region between the gluteal muscle and the femoral muscle of the mouse was incised to expose the sciatic nerve. The nerve was then grasped and injured for a predetermined period using a surgical tool (MacJam) at one of three intensities (stages 1, 2, or 3; stage 3 for 3 seconds was used as the reference), after which the incision was sutured to establish an acquired peripheral nerve injury animal model. From the day following disease induction, KINE-101 dissolved in DPBS was administered intravenously (I.V.) at doses of 10, 50, and 100 mg/kg three times per week for a total of four weeks.
Specifically, KINE-101 was administered to the acquired peripheral nerve injury animal model for four weeks according to the method described in Example <4-1>, and the experimental animals were sacrificed six weeks after the start of administration. Thereafter, immune cells were isolated from the lymph nodes at the nerve injury site of the experimental animals. The isolated immune cells were subjected to fluorescent staining for CD4 and Foxp3 proteins, and the proportion of Treg cells among CD4 T cells was determined by flow cytometry. In addition, fluorescent staining for the CTLA4 protein, which is an activation marker of Treg cells, was performed, and the level of CTLA4 expression in Treg cells was compared by flow cytometric analysis to evaluate the degree of activation.

[2] = tested on: chronic inflammatory demyelinating polyneuropathy (CIDP) animal model; experiment: Clinical score in CIDP animal model (EAN P0(180-199)); type: in vivo, Lewis rats
Procedure: Female Lewis rats (7 weeks old) were obtained and acclimatized for one week. Thereafter, solution A was prepared by dissolving peripheral myelin PO protein (180-199) in 0.9% saline at a concentration of […], and solution B was prepared by dissolving Mycobacterium tuberculosis in Freund's incomplete adjuvant at a concentration of […]. A sterile 50 ml tube was placed in an ice box, and solutions A and B were mixed at a ratio of 1:1. The mixture was then homogenized using a homogenizer for 15 minutes to prepare an emulsion. The prepared emulsion was loaded into a 1 ml syringe, the syringe needle was replaced with a 25G needle, and the syringe was stored in an ice box containing ice until use. The emulsion (200 μL) was subcutaneously (S.C.) injected into the tail of the Lewis rats to induce the disease. […]
In order to examine the progression of CIDP following administration of KINE-101, the severity of CIDP over time after administration of KINE-101 to the CIDP animal model was evaluated and measured using a clinical score.
Specifically, during administration of KINE-101 by the method described in Example <2-1>, the symptoms were evaluated on a scale of 0 to 5 according to the criteria shown in Table 3 below. […] The severity of CIDP was quantified by calculating the average value of the results evaluated for each individual.

[3] = tested on: acquired peripheral nerve injury animal model; experiment: Histopathological examination of nerve tissues (toluidine blue, TEM), acquired peripheral nerve injury animal model; type: in vivo, C57BL/6 mice; conditions: for myelinated axons and unmyelinated fibers: vs acquired peripheral nerve injury group
From the text: as §1
Specifically, KINE-101 was administered to the acquired peripheral nerve injury animal model for four weeks according to the method described in Example <4-1>, and the experimental animals were sacrificed six weeks after the start of administration. Thereafter, peripheral nerve tissues of the hind limbs were isolated and fixed in a 4% paraformaldehyde solution containing 2.5% glutaraldehyde. After ethanol dehydration, the tissues were embedded in epoxy resin and semi-thin sections (1 μm) were prepared. The semi-thin sections were stained with toluidine blue for 5-10 seconds and observed under a light microscope. In addition, ultra-thin sections (65 nm) were prepared, and tissue cross-sections were observed using a transmission electron microscope (TEM) to examine abnormalities of myelin (demyelination, dysmyelination, and hypermyelination).

[4] = Body weight change in CIDP animal model (S-palmP0(180-199)); type: in vivo, Lewis rats
Procedure: (§2) Specifically, male Lewis rats (7 weeks old) were obtained and acclimatized for one week. Thereafter, solution A was prepared by dissolving s-palm PO, in which palmitic acid is conjugated to cysteine at the 181st amino acid of peripheral myelin PO protein described in <Example 2>, in saline at a concentration of 2 mg/mL. Solution B was prepared by dissolving Mycobacterium tuberculosis in Freund's adjuvant at a concentration of 5 mg/mL. A sterile 25 mL tube was placed in an ice box, and solutions A and B were mixed at a ratio of 1:1 and homogenized for 15 minutes using a homogenizer to prepare an emulsion. The emulsion (200 μL) was then administered by subcutaneous injection at the base of the rat tail to induce the disease. […] The KINE-101 administration groups received KINE-101 dissolved in DPBS at doses of 6.25, 12.5, 25, and 37.5 mg/kg by intravenous injection (I.V.) three times per week for 15 days, starting the day after disease induction. The IVIg administration group received IVIg at a dose of 400 mg/kg once daily for 5 days starting the day after disease induction. The experiment was terminated on day 15 after disease induction.
Specifically, body weight was measured during administration of KINE-101 or IVIg by the method described in Example <3-1>, and the change in body weight was calculated relative to the body weight before disease induction (Day 0).

[5] = tested on: acquired peripheral nerve injury animal model; experiment: Nerve conduction studies in acquired peripheral nerve injury animal model; type: in vivo, C57BL/6 mice
Procedure: (§3) Specifically, KINE-101 or IVIg was administered by the method described in Example <3-1>, and after completion of the experiment, the animals were anesthetized with 1.5% isoflurane and examined. The fur from the distal region of the hind limb to the upper region was removed, and nerve conduction studies for measuring motor and sensory nerves were performed using a Nicolet VikingQuest device as the electrophysiological examination instrument. For the nerve conduction study, a needle electrode was placed on the motor nerve or sensory nerve, and a reference electrode was placed on the gastrocnemius muscle. The stimulating cathode was positioned in the middle of the posterior thigh near the recording electrode, and stimulation was applied at both distal and proximal sites. Motor nerve conduction velocity (MNCV) and compound muscle action potential (CMAP) of the motor nerve, as well as sensory nerve conduction velocity (SNCV) and sensory nerve action potential (SNAP) of the sensory nerve, were measured.
as §1
Specifically, mice were anesthetized with 1.5% isoflurane at weeks 0, 3, and 6 after administration of KINE-101 according to the method described in Example <4-1>, and MNCV, CMAP, SNCV, and SNAP were measured by the same method described in Example <3-4> to determine whether motor nerves and sensory nerves were damaged.

CIDP animal model [6] = experiment: Nerve conduction studies (MNCV, CMAP, SNCV, SNAP) in CIDP animal model; type: in vivo, Lewis rats
Procedure: as §2, §3

[7] = tested on: acquired peripheral nerve injury animal model; experiment: Rotarod test in acquired peripheral nerve injury animal model; type: in vivo, C57BL/6 mice; conditions: weeks 3 and 6; all KINE-101-treated groups (10, 50, 100 mg/kg); vs Injury Ctr
From the text: as §1, with “From the day following disease induction, KINE-101 dissolved in DPBS was administered intravenously (I.V.) at doses of 10, 50, and 100 mg/kg three times per week for a total of four weeks.” left out
Demyelinating diseases are known to be accompanied by symptoms such as muscle weakness and impaired balance. […] Specifically, the phenotype of the experimental animals was analyzed using rotarod, grip strength, and tail suspension tests. […] Using a rotarod apparatus (ROTA ROD, LE8205, Panlab), the time during which the animal remained on the rotating rod was measured for 2 minutes and 30 seconds at a fixed speed of 8 rpm. For each evaluation, three trials were conducted, and the maximum duration among the trials was analyzed.

CIDP animal model [8] = experiment: Clinical score in CIDP animal model (S-palmP0(180-199)), KINE-101 vs IVIg; type: in vivo, Lewis rats
[9] = week 3, KINE-101 10 mg/kg I.V. three times per week for four weeks
[10] = week 3, KINE-101 50 mg/kg I.V. three times per week for four weeks
[11] = week 6, KINE-101 50 mg/kg I.V. three times per week for four weeks
[12] = weeks 3 and 6, KINE-101-treated groups (10, 50, 100 mg/kg)
[13] = all KINE-101-treated groups (6.25-37.5 mg/kg I.V.), after day 15
[14] = all KINE-101-treated groups, IVIg 400 mg/kg

For “PSPPSPPSP [KINE-101, trimeric polymer prepared using a PSP fragment (PSP monomer)]”, the “demyelination (degree of myelin loss, TEM)” value [1] was “demyelination was suppressed similarly to that observed in the normal group”, the “CTLA4 expression in Treg cells (activation marker)” value (Treg cells; KINE-101 50 mg/kg) was “increased to a statistically significant level” and the “proportion of Treg cells among CD4 T cells in lymph nodes at nerve injury site” value (Treg cells; KINE-101 50 mg/kg) was “increased to a statistically significant level”. The “CTLA4 expression in Treg cells (activation marker)” value (Treg cells; KINE-101-treated groups (10, 50, 100 mg/kg)) was “increased”, the “proportion of Treg cells among CD4 T cells in lymph nodes at nerve injury site” value (Treg cells; KINE-101-treated groups (10, 50, 100 mg/kg), six weeks after start of administration) was “increased” and the clinical score ([2]; KINE-101 50 mg/kg I.V. three times per week) was “lowest clinical score”. The “clinical score (CIDP symptoms)” value ([2]; all KINE-101-treated groups (1, 5, 25, 50 mg/kg I.V. three times per week), vs CIDP-induced group) was “alleviation of symptoms after day 15”, the “myelinated axons and unmyelinated fibers” value ([3]; KINE-101 50 mg/kg) was “marked increase in myelinated axons and a decrease in unmyelinated fibers” and the “myelinated axons and unmyelinated fibers” value ([3]; KINE-101 100 mg/kg) was “marked increase in myelinated axons and a decrease in unmyelinated fibers”. For the same sequence, the myelination ([3]; KINE-101-treated groups (10, 50, 100 mg/kg), six weeks after start of administration, vs Injury Ctr) was “improved myelination”, the “number of large myelinated fibers and small unmyelinated fibers” value ([3]; KINE-101-treated groups, six weeks after start of administration) was “an increase in the number of large myelinated fibers and a decrease in the number of small unmyelinated fibers” and the “body weight improvement effect” value ([4]; KINE-101 12.5 mg/kg I.V.) was “most pronounced body weight improvement effect”. For the same sequence, the “body weight gain vs negative control group” value ([4]; KINE-101-treated groups (6.25-37.5 mg/kg I.V.)) was “greater body weight gain compared with the negative control group”, the “body weight vs before disease induction (Day 0)” value ([4]; KINE-101-treated groups, day 15 after disease induction) was “maintained significantly higher body weight than that before disease induction” and the CMAP [5, 9] was 11.0±2.3 mV. For the same sequence, the SNCV [5, 9] was 27.7±2.8 m/s, the MNCV [5, 10] was 46.7±7.4 m/s and the SNAP [5, 10] was 11.2±3.1 μV. For the same sequence, the SNCV [5, 10] was 27.6±2.2 m/s, the SNCV ([5]; week 3, KINE-101 100 mg/kg I.V. three times per week for four weeks) was 28.6±3.7 m/s and the CMAP [5, 11] was 32.9±4.0 mV. For the same sequence, the MNCV [5, 11] was 63.9±7.6 m/s, the SNAP [5, 11] was 12.3±2.9 μV and the SNCV [5, 11] was 27.9±3.1 m/s. For the same sequence, the MNCV ([5]; week 6, KINE-101 100 mg/kg I.V. three times per week for four weeks) was 59.0±4.5 m/s, the MNCV ([5]; week 6, KINE-101-treated groups (10, 50, 100 mg/kg)) was “increased” and the CMAP [5, 12] was “increased compared with those in the acquired peripheral nerve injury group”. For the same sequence, the SNAP [5, 12] was “increased compared with those in the acquired peripheral nerve injury group”, the “MNCV and CMAP” value (CIDP animal model [6]; KINE-101 12.5 mg/kg I.V.) was “most pronounced effect” and the “SNCV and SNAP” value (CIDP animal model [6]; KINE-101 12.5 mg/kg I.V.) was “most pronounced effect”. For the same sequence, the “compound muscle action potential (CMAP)” value (CIDP animal model [6]; [13]) was “higher MNCV and CMAP values compared with the negative control group”, the “motor nerve conduction velocity (MNCV)” value (CIDP animal model [6]; [13]) was “higher MNCV and CMAP values compared with the negative control group” and the “sensory nerve action potential (SNAP)” value (CIDP animal model [6]; [13]) was “higher SNCV and SNAP values compared with the negative control group”. The “sensory nerve conduction velocity (SNCV)” value (CIDP animal model [6]; [13]) was “higher SNCV and SNAP values compared with the negative control group”, the “MNCV and CMAP vs IVIg-treated group” value (CIDP animal model [6]; [14]) was “effects similar to or superior to those of the IVIg-treated group” and the “SNCV and SNAP vs IVIg-treated group” value (CIDP animal model [6]; [14]) was “effects similar to those of the IVIg-treated group”. For the same sequence, the “muscle strength and balance (rotarod)” value [7] was “improved muscle strength and balance”, the clinical score (CIDP animal model [8]; KINE-101 25 mg/kg I.V. three times per week) was “lowest clinical score” and the clinical score (CIDP animal model [8]; all KINE-101-treated groups (6.25 mg/kg to 37.5 mg/kg I.V. three times per week), day 15 after disease induction) was “lower clinical scores on day 15 after disease induction compared with the negative control group”.
